According to patent US10214766B2, “Luminescent substrate for use in artificial bioluminescent enzyme” (NATIONAL INSTITUTE OF ADVANCED INDUSTRIAL SCIENCE AND …, priority 2013, dated 2019):
Entries after “also recorded” stand apart in the source; their conditions may differ.

Experiments:
Type in all cases: biochemical
RLuc8.6-535 [1] = target: T1, RLuc8.6-535 (Renilla reniformis, UniProt P27652, A123S/A143M/A55T/C124A/D162E/I163L/K136R/M185L/M253L/S130A/S287L); details: COS-7 lysate 10 μL, LAS-4000
T1 construct: expressed in transfected cells; host or cells: COS-7 (African monkey kidney), lysate
T1 sequence (P27652 whole entry A55T/A123S/C124A/S130A/K136R/A143M/D162E/I163L/M185L/M253L/S287L): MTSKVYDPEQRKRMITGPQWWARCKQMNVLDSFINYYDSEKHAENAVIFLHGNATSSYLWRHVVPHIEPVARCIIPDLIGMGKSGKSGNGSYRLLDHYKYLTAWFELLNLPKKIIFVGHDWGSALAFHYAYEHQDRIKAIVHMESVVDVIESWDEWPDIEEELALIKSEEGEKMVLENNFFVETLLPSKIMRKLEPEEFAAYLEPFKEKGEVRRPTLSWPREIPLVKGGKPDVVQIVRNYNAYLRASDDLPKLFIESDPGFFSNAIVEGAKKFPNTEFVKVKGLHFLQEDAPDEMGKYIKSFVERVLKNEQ
Description: (§1) First, African monkey kidney-derived culture cells COS-7 were cultured in a 96-well plate until the culture area covered 90% of the lower area of the plate. At this stage, the plate wells growing cells were divided into two groups, and pcDNA3.1(+) vector, which expresses ALuc34 or RLuc8.6-535, was introduced into each group by the lipofection technique (TransIT-LT1), followed by further incubation for 16 hours. After incubation, the cells were lysed and an aliquot of the lysates (10 μL) is placed in a fresh 96-well plate. Different luminescent substrates were simultaneously added thereto using a multichannel pipette, and the relative luminescence intensity was immediately measured with a luminescence imaging analyzer LAS-4000 (FujiFilm). […] As used herein, “substrate selectivity” refers to a luminescence intensity of ALuc compared with the luminescence intensity of RLuc8.6-535 in the presence of the same luminescent substrate.

ALuc34 = assay: Relative luminescence intensity of lysates of COS-7 cells expressing ALuc34 after adding coelenterazine derivatives; details: for Ratios (A34/RLuc8.6-535): ALuc34 intensity over RLuc8.6-535 intensity, same substrate; for Luminescence intensity ALuc34 ave: COS-7 lysate 10 μL, LAS-4000; for substrate selectivity (RLuc8.6-535:ALuc, 1:x): luminescence intensity of ALuc compared with RLuc8.6-535, same substrate
Description: as §1

RLuc8.6-535 [2] = target: T1, RLuc8.6-535; details: 5 μL lysate + 30 μL substrate, AB-1850
[3] = tested on: Cypridina luciferase (CLuc); assay: Dual assay with or without 0.1% SDS, CLuc luminescence
Description: (§2) It is advantageous for simultaneous measurement of multiple biomarkers if a dual assay can be performed in the presence of two or more bioluminescent enzymes. With this point in mind, luminescence was measured in the presence of two bioluminescent enzymes (ALuc and CLuc) (FIG. 5). First, COS-7 cells were cultured in a 96-well plate, and a plasmid that expresses ALuc or CLuc was transfected into each cellular compartment by lipofection. Under the conditions, CLuc is secreted, but ALuc largely remains inside the cells because of the endoplasmic reticulum localization signal (KDEL) attached to the terminus. 16 hours later, 10 μL of the CLuc culture solution was mixed with 2 μL of ALuc lysate. Then, the luminescence intensity was compared between the cases where 0.1% SDS was added or not, After addition of the luminescent substrates specific to ALuc and CLuc, respectively.

ALuc = assay: Dual assay with or without 0.1% SDS, ALuc luminescence; details: sulfate
Description: as §2

| Compound | Luminescence intensity RLuc8.6-535 ave (RLuc8.6-535 [1]) [RLU/μg/sec/mm2] | luminescence intensity with ALuc (in words) (ALuc34) | Ratios (A34/RLuc8.6-535) (ALuc34) | Luminescence intensity ALuc34 ave (ALuc34) [RLU/μg/sec/mm2] | Spectrum peak RLuc8.6-535 (RLuc8.6-535 [2]) [nm] | effect on CLuc luminescence activity [3] | effect on ALuc luminescence activity (ALuc) | luminescent substrate selectivity (ALuc34; ALuc versus RLuc8.6-535) | substrate selectivity (RLuc8.6-535:ALuc, 1:x) (ALuc34) |
| --- | --- | --- | --- | --- | --- | --- | --- | --- | --- |
| O=c1c(Cc2ccccc2)nc2c(Cc3ccccc3)[nH]c(-c3ccccc3)cn1-2 [CTZ 400, coelenterazine 400A] | 3 | luminescence intensity was almost not observed at all | 3610 | 11624 | – | – | – | – | – |
| coelenterazine ip [CTZ ip, reference compound] | 2200 | – | 4 | 8379 | 535 | – | – | – | – |
| O=c1c(Cc2ccccc2)nc2c(Cc3ccccc3)[nH]c(-c3ccc(O)cc3)cn1-2 [CTZ h, coelenterazine h] | 12812 | strong luminescence | 91 | 1168658 | 545 | – | – | – | – |
| CCCCCCCCCCCCOS(=O)(=O)[O-].[Na+] [SDS, sodium dodecyl sulfate] | – | – | – | – | – | somewhat maintained luminescence activity | substantially deactivated; also recorded: mostly quenched | – | – |
| Oc1ccc(Cc2nc3c(CC4CCCC4)nc(-c4ccc(O)cc4)cn3c2O)cc1 [CTZ op, coelenterazine cp, reference compound] | 5354 | – | 8 | 40564 | – | – | – | – | – |
| Oc1ccc(-c2cn3c(O)c(Cc4ccccc4)nc3c(CC3CCCC3)n2)cc1 [CTZ hcp, coelenterazine hcp, reference compound] | 2058 | – | 3 | 5191 | – | – | – | – | – |
| O=c1c(Cc2ccc(I)cc2)nc2c(Cc3ccccc3)[nH]c(-c3ccc(O)cc3)cn1-2 [CTZ i, coelenterazine i] | 97 | high luminescence intensity | 9398 | 913540 | – | – | – | about 10,000 fold | 9400 |
| Oc1ccc(-c2cn3c(O)c(Cc4ccc(F)cc4)nc3c(CC3CCCC3)n2)cc1 [CTZ fcp, coelenterazine fcp, reference compound] | 1217 | – | 3 | 3712 | – | – | – | – | – |
| O=c1c(Cc2ccc(F)cc2)nc2c(Cc3ccccc3)[nH]c(-c3ccc(O)cc3)cn1-2 [CTZ f, coelenterazine f] | 7151 | – | 134 | 956530 | 547 | – | – | – | 134 |
| O=c1c(Cc2ccc3ccccc3c2)nc2c(Cc3ccccc3)[nH]c(-c3ccc(O)cc3)cn1-2 | 2132 | – | 81 | 172323 | – | – | – | – | – |
